The molecules below were run against T1, 5-hydroxytryptamine receptor 4 (Cavia porcellus, UniProt O70528).
T1 sequence (O70528 whole entry): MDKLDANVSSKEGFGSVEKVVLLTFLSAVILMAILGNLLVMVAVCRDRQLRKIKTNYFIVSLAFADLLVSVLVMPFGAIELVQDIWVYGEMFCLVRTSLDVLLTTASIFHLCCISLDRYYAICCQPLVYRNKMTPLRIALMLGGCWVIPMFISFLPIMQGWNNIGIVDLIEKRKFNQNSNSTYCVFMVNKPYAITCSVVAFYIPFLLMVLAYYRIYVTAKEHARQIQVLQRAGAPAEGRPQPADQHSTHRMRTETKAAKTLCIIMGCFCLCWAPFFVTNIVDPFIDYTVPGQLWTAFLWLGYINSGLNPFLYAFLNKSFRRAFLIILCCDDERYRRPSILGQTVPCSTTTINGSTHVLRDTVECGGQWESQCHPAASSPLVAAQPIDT

| SMILES | IC50 |
| --- | --- |
| COc1cc(N)c(Cl)cc1C(=O)OCCN1CC(C)OC(C)C1 (centres undefined) | Not Active |
| NCCc1c[nH]c2ccc(O)cc12 [SEROTONIN] | Not Active |
| CC(C)n1c(=O)n(C(=O)NC2CC3CCC(C2)N3C)c2ccccc21 (centres undefined) | Not Active |

The molecules below were run against T1, 5-hydroxytryptamine receptor 4 (assay: 5-hydroxytryptamine 4 receptor agonist activity, concentration which gave 50% increase in the response to electrically-stimulated myenteric plexus and longitudinal muscle of the guinea pig ileum).
Type: functional, tissue-based

| SMILES | EC50 [nM] |
| --- | --- |
| COc1cc(N)c(Cl)cc1C(=O)OCCN1CCCCCC1 | 4.4 |
| COc1cc(N)c(Cl)cc1C(=O)OCCN1CC2CCC(CC2)C1 | 7.8 |
| COc1cc(N)c(Cl)cc1C(=O)OCCN1CCCCC1C (centres undefined) | 6 |
| COc1cc(N)c(Cl)cc1C(=O)OCCN1C2CCCC1CC2 | 40 |
| COc1cc(N)c(Cl)cc1C(=O)NCCN1CCCCC1 | > 1000 |
| COc1cc(N)c(Cl)cc1C(=O)OCC[N+]12CCC(CC1)CC2 | 5.3 |
| COc1cc(N)c(Cl)cc1C(=O)OCCN1CCC(NC(C)=O)CC1 | 13 |
| COc1cc(N)c(Cl)cc1C(=O)N(C)CCN1CCCCC1 | > 1000 |
| COc1cc(N)c(Cl)cc1C(=O)OCCN1CCC(C(N)=O)CC1 | 19 |
| COc1cc(N)c(Cl)cc1C(=O)OCCN(C)C | 180 |
| COc1cc(N)c(Cl)cc1C(=O)OCCCN1CCCCC1 | 30 |
| COc1cc(N)c(Cl)cc1C(=O)OCCN1CCCC(O)C1 (stereo in doubt; 7l) [listing 1 of 2 here] | 10 |
| COc1cc(N)c(Cl)cc1C(=O)OCC[n+]1ccccc1 | 17 |
| COc1cc(N)c(Cl)cc1C(=O)NCCN1CC(C)CC(C)C1 (centres undefined) | ~930 |
| COc1cc(N)c(Cl)cc1C(=O)OCCN1CCCC(O)C1 (stereo in doubt; 7k) [listing 1 of 2 here] | 4 |
| COc1cc(N)c(Cl)cc1C(=O)OCCN1CCCC(C)C1 (centres undefined) | 15 |
| COc1cc(N)c(Cl)cc1C(=O)N[C@H]1CN2CCC1CC2 [(R)ZACOPRIDE] | 166 |
| COc1cc(N)c(Cl)cc1C(=O)OCCN1CCC(O)CC1 | 14 |
| COc1cc(N)c(Cl)cc1C(=O)OCCN1CCC(C)CC1 | 3 |
| CC(C)n1c(=O)n(C(=O)NC2CC3CCC(C2)N3C)c2ccccc21 (centres undefined) | 43 |
| COc1cc(N)c(Cl)cc1C(=O)OCCN1CC=CCC1 | 29 |
| COc1cc(N)c(Cl)cc1C(=O)OCCN1CCCC1 | 40 |
| COc1cc(N)c(Cl)cc1C(=O)OCCN1CCCC(O)C1 (stereo in doubt; 7j) [listing 1 of 2 here] | 5 |
| COc1cc(N)c(Cl)cc1C(=O)OCCN1CCOCC1 | 113 |
| COc1cc(N)c(Cl)cc1C(=O)N[C@@H]1CN2CCC1CC2 | 77 |

The molecules below were run against 5-hydroxytryptamine receptor 4 (Rattus norvegicus, UniProt Q62758) (assay: Binding affinity towards 5-hydroxytryptamine 4 receptor was determined in rat striatal membranes using [3H]GR-113808 as radioligand).
5-hydroxytryptamine receptor 4 (Rattus norvegicus, UniProt Q62758), sequence (Q62758 whole entry): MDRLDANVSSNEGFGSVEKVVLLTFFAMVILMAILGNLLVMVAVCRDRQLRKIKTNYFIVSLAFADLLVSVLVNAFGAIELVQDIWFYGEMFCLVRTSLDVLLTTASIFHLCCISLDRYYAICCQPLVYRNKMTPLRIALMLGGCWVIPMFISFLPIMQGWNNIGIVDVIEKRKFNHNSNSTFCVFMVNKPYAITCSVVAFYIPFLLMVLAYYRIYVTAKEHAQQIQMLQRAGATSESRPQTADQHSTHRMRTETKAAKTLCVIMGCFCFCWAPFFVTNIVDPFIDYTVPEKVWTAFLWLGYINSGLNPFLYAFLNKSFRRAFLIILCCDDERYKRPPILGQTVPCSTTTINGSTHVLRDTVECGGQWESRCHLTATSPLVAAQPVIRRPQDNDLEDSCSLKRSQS
Type: cell membranes, Striatum, Membrane

| SMILES | Ki [nM] |
| --- | --- |
| COc1cc(N)c(Cl)cc1C(=O)OCCN1CCCC(C)(C)C1 | 1.72 |
| COc1cc(N)c(Cl)cc1C(=O)OCCN1CC(C)OC(C)C1 (centres undefined) | 6.28 |
| COc1cc(N)c(Cl)cc1C(=O)OCCN1CCCCCC1 | 0.92 |
| COc1cc(N)c(Cl)cc1C(=O)OCCN1CC2CCC(CC2)C1 | 5.45 |
| COc1cc(N)c(Cl)cc1C(=O)OCCN1CCCCC1C (centres undefined) | 7.8 |
| COc1cc(N)c(Cl)cc1C(=O)NCCN(C)C | > 1000 |
| COc1cc(N)c(Cl)cc1C(=O)OCCN1C2CCCC1CC2 | 9.3 |
| COc1cc(N)c(Cl)cc1C(=O)NCCN1CCCCC1 | 135 |
| COc1cc(N)c(Cl)cc1C(=O)OCC[N+]12CCC(CC1)CC2 | 6.03 |
| COc1cc(N)c(Cl)cc1C(=O)OCCN1CCC(NC(C)=O)CC1 | 1.05 |
| COc1cc(N)c(Cl)cc1C(=O)N(C)CCN1CCCCC1 | > 1000 |
| COc1cc(N)c(Cl)cc1C(=O)OCCN1CC(C)CC(C)C1 (stereo in doubt; 7g) | 0.26 |
| COc1cc(N)c(Cl)cc1C(=O)OCCN1CCC(C(N)=O)CC1 | 1.43 |
| COc1cc(N)c(Cl)cc1C(=O)OCCN(C)C | 47 |
| COc1cc(N)c(Cl)cc1C(=O)OCCN1CC(C)CC(C)C1 (stereo in doubt; 7h) | 2.32 |
| COc1cc(N)c(Cl)cc1C(=O)OCCCN1CCCCC1 | 28.1 |
| Cn1cc(C(=O)OCC2CCN(CCNS(C)(=O)=O)CC2)c2ccccc21 | 0.15 |

| SMILES | Ki [nM] |
| --- | --- |
| CCN(CC)CCOC(=O)c1cc(Cl)c(N)cc1OC | 5.5 |
| COc1cc(N)c(Cl)cc1C(=O)OCCN1CCCC(O)C1 (stereo in doubt; 7l) [listing 1 of 2 here] | 2 |
| COc1cc(N)c(Cl)cc1C(=O)OCC[n+]1ccccc1 | 6.2 |
| COc1cc(N)c(Cl)cc1C(=O)NCCN1CC(C)CC(C)C1 (centres undefined) | 103 |
| COc1cc(N)c(Cl)cc1C(=O)OCCN1CCCC(O)C1 (stereo in doubt; 7k) [listing 1 of 2 here] | 1 |
| COc1cc(N)c(Cl)cc1C(=O)OCCN1CCCC(C)C1 (centres undefined) | 0.93 |
| COc1cc(N)c(Cl)cc1C(=O)NC1CC2CCC(C1)N2C (centres undefined) | 48.6 |
| COc1cc(N)c(Cl)cc1C(=O)OCCN1C(C)CCCC1C (centres undefined) | 39.5 |
| COc1cc(N)c(Cl)cc1C(=O)N[C@H]1CN2CCC1CC2 [(R)ZACOPRIDE] | 1510 |
| COc1cc(N)c(Cl)cc1C(=O)OCCN1CCC(O)CC1 | 1.42 |
| COc1cc(N)c(Cl)cc1C(=O)OCCN1CCC(C)CC1 | 4.08 |
| CC(C)n1c(=O)n(C(=O)NC2CC3CCC(C2)N3C)c2ccccc21 (centres undefined) | 257 |
| COc1cc(N)c(Cl)cc1C(=O)OCCN1CC=CCC1 | 9.1 |
| COc1cc(N)c(Cl)cc1C(=O)OCCN1CCCC1 | 5.35 |
| COc1cc(N)c(Cl)cc1C(=O)OCCN1CCCC(O)C1 (stereo in doubt; 7j) [listing 1 of 2 here] | 4.8 |
| COc1cc(N)c(Cl)cc1C(=O)OCCN1CCOCC1 | 35.6 |

Each molecule was assayed against T1, 5-hydroxytryptamine receptor 4 (assay: 5-hydroxytryptamine 4 receptor antagonist activity, concentration which gave 50% reduction of the 5-HT-induced contractions in the guinea pig ileum; Inactive up to 10E-5 M).
Type: functional, tissue-based

| SMILES | IC50 |
| --- | --- |
| COc1cc(N)c(Cl)cc1C(=O)OCCN1CCOCC1 | Not Active |

Each molecule was assayed against T2, Serotonin 3 (5-HT3) receptor (Rattus norvegicus, UniProt P35563+Q9JJ16) (assay: Binding affinity was measured on 5-hydroxytryptamine 3 receptor using [3H]-BRL 43694 as radioligand in rat posterior cortex.).
T2 sequence (P35563 whole entry): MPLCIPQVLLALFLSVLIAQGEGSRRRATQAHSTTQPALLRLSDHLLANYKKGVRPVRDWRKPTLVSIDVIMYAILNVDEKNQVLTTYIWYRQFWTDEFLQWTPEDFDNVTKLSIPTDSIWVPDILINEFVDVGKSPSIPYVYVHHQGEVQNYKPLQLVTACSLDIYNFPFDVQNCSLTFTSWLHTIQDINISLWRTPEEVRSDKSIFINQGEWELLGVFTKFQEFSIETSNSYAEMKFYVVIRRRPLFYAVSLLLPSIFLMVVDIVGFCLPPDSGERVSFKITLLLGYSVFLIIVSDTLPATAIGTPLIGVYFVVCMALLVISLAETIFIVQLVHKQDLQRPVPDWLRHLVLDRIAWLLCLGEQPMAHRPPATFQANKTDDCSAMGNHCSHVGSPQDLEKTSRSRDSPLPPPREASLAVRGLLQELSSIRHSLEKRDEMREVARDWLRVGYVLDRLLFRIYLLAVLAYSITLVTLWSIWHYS
T2 sequence (Q9JJ16 whole entry): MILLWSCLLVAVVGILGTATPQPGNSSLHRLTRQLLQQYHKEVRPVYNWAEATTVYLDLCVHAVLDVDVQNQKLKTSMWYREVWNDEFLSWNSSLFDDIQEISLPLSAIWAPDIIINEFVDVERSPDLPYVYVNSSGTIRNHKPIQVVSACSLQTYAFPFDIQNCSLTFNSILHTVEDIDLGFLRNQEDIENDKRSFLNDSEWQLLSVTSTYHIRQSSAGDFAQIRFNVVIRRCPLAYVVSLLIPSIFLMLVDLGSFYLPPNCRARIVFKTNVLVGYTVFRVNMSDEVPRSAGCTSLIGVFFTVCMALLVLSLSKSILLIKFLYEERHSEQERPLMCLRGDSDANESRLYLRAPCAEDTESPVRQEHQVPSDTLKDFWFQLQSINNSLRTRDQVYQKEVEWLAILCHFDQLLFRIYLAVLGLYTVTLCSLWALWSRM

| SMILES | Ki [nM] |
| --- | --- |
| COc1cc(N)c(Cl)cc1C(=O)OCCN1CCCCC1 | 730 |
| COc1cc(N)c(Cl)cc1C(=O)OCCN1CC(C)CC(C)C1 (stereo in doubt; 7g) | > 1000 |
| COc1cc(N)c(Cl)cc1C(=O)OCCN1CC(C)CC(C)C1 (stereo in doubt; 7h) | > 1000 |
| COc1cc(N)c(Cl)cc1C(=O)OCCN1CCCC(C)C1 (centres undefined) | > 1000 |

What follows are molecules tested against T2, Serotonin 3 (5-HT3) receptor (assay: Binding affinity was measured on 5-hydroxytryptamine 3 receptor using [3H]-BRL 43694 as radioligand in rat posterior cortex).

| SMILES | Ki [nM] |
| --- | --- |
| COc1cc(N)c(Cl)cc1C(=O)OCCN1CCCC(O)C1 (stereo in doubt; 7j) [listing 1 of 2 here] | > 1000 |

The molecules below were run against T1, 5-hydroxytryptamine receptor 4 (assay: 5-hydroxytryptamine 4 receptor antagonist activity, concentration which gave 50% reduction of the 5-HT-induced contractions in the guinea pig ileum).
Type: functional, tissue-based

| SMILES | IC50 [nM] |
| --- | --- |
| COc1cc(N)c(Cl)cc1C(=O)OCCN1CCCC(C)(C)C1 | 150 |
| COc1cc(N)c(Cl)cc1C(=O)OCCN1CC(C)OC(C)C1 (centres undefined) | 300 |
| COc1cc(N)c(Cl)cc1C(=O)NCCN1CCCCC1 | > 1000 |
| COc1cc(N)c(Cl)cc1C(=O)OCC[N+]12CCC(CC1)CC2 | ~20 |
| COc1cc(N)c(Cl)cc1C(=O)N(C)CCN1CCCCC1 | > 1000 |
| COc1cc(N)c(Cl)cc1C(=O)OCCN1CC(C)CC(C)C1 (stereo in doubt; 7g) | 11 |
| COc1cc(N)c(Cl)cc1C(=O)OCCN(C)C | 600 |
| COc1cc(N)c(Cl)cc1C(=O)OCCN1CC(C)CC(C)C1 (stereo in doubt; 7h) | 13 |
| Cn1cc(C(=O)OCC2CCN(CCNS(C)(=O)=O)CC2)c2ccccc21 | 13 |
| COc1cc(N)c(Cl)cc1C(=O)OCCN1CCN(c2ccccc2)CC1 | 100 |
| COc1cc(N)c(Cl)cc1C(=O)OCCN1CCCC1 | 200 |

The molecules below were run against 5-hydroxytryptamine receptor 4 (Cavia porcellus) (UniProt O70528) (assay: 5-hydroxytryptamine 4 receptor agonist activity is expressed as percent of the maximum 5-HT response).
5-hydroxytryptamine receptor 4 (Cavia porcellus), sequence (O70528 whole entry): as the sequence (O70528 whole entry) above
Type: functional

| SMILES | Activity [%] |
| --- | --- |
| COc1cc(N)c(Cl)cc1C(=O)OCCN1CCCCCC1 | 59 |
| COc1cc(N)c(Cl)cc1C(=O)OCCN1CC2CCC(CC2)C1 | 61 |
| COc1cc(N)c(Cl)cc1C(=O)OCCN1CCCCC1C (centres undefined) | 82 |
| COc1cc(N)c(Cl)cc1C(=O)OCCN1C2CCCC1CC2 | 63 |
| COc1cc(N)c(Cl)cc1C(=O)OCCN1CCCC(O)C1 (stereo in doubt; 7k) [listing 2 of 2 here] | 62 |
| COc1cc(N)c(Cl)cc1C(=O)OCC[N+]12CCC(CC1)CC2 | 78 |
| COc1cc(N)c(Cl)cc1C(=O)OCCN1CCC(NC(C)=O)CC1 | 59 |
| COc1cc(N)c(Cl)cc1C(=O)OC1CC2CCC(C1)N2C (centres undefined) | 41 |
| COc1cc(N)c(Cl)cc1C(=O)OCCN1CCC(C(N)=O)CC1 | 65 |
| COc1cc(N)c(Cl)cc1C(=O)OCCN(C)C | 60 |
| COc1cc(N)c(Cl)cc1C(=O)OCCCN1CCCCC1 | 52 |
| COc1cc(N)c(Cl)cc1C(=O)NCCN1CC(C)CC(C)C1 (centres undefined) | 80 |
| COc1cc(N)c(Cl)cc1C(=O)OCCN1CCCC(C)C1 (centres undefined) | 54 |
| COc1cc(N)c(Cl)cc1C(=O)N[C@H]1CN2CCC1CC2 [(R)ZACOPRIDE] | 84 |
| COc1cc(N)c(Cl)cc1C(=O)OCCN1CCC(O)CC1 | 72 |
| COc1cc(N)c(Cl)cc1C(=O)OCCN1CCC(C)CC1 | 57 |
| COc1cc(N)c(Cl)cc1C(=O)OCCN1CC=CCC1 | 65 |
| COc1cc(N)c(Cl)cc1C(=O)OCCN1CCCC1 | 50 |
| COc1cc(N)c(Cl)cc1C(=O)OCCN1CCCC(O)C1 (stereo in doubt; 7l) [listing 2 of 2 here] | 61 |
| COc1cc(N)c(Cl)cc1C(=O)OCCN1CCCC(O)C1 (stereo in doubt; 7j) [listing 2 of 2 here] | 64 |
| COc1cc(N)c(Cl)cc1C(=O)N[C@@H]1CN2CCC1CC2 | 100 |

Reference: ChEMBL document CHEMBL1129946, “New esters of 4-amino-5-chloro-2-methoxybenzoic acid as potent agonists and antagonists for 5-HT4 receptors” (J Med Chem, 1997)
